Data reported in patent US10898548B2, “Modulators of protein tyrosine phosphatase and uses thereof” (LEUVAS THERAPEUTICS, priority 2015, dated 2021).

Test system: tyrosine phosphatase activity in PMNs
Experiment: in vitro phosphatase activity (pNPP) on membranes from human primary PMNs
Assay type: biochemical
Conditions: PMN membranes, DMSO 0.75
Protocol: We first tested the biochemical activity of the fusion peptide by performing in vitro assays of phosphatase activity on purified membranes isolated from human primary monocytes compared to membranes isolated from human primary polymorphonuclear cells (PMNs). Human primary monocytes and polymorphonuclear (PMNs) cells were isolated from whole blood of healthy donors. Purity of monocyte preparation was evaluated by flow cytometry after staining with fluorescein isothiocyanate (FITC)-conjugated anti-CD14 antibody and was more than 95%. Isolated cells were kept at 37° C. in standard adhesion buffer (PBS, 1 mM CaCl2, 1 mM MgCl2, 10% FBS, pH 7.2) and used within 1 h.
The phosphatase activity in membrane fractions isolated from human monocytes and PMNs was assessed. […] Cells were then sonicated twice (6 sec, 15% W) and centrifuged at 2000 rpm for 10 minutes. The supernatants were collected and centrifuged at 28000 rpm for 60 minutes. After centrifugation, the supernatants were discarded, and the membrane pellets were dissolved in 20 mM tris pH 7.4. Equal amount of membrane fractions were added to pNPP buffer containing 20 mM tris, 10 mM DTT and 2 mM pNPP. Following, DMSO and peptides were added. After 30 minutes of incubation, levels of de-phosphorylation, in presence or absence of orthovanadate, were measured at 405 nm by a plate reader. Values are absorbance at 405 nn shown as percent fold increase over the blank; mean values of three experiments are shown. *p<0.001 vs vehicle (DMSO).

phosphatase activity, absorbance at 405 nm as percent fold increase over the blank (P1-WD 50 micromolar) [%] | phosphatase activity, absorbance at 405 nm as percent fold increase over the blank (P1-WD 100 micromolar) [%] | phosphatase activity, absorbance at 405 nm as percent fold increase over the blank (P1-WD 200 micromolar) [%] | Substance | phosphatase activity, absorbance at 405 nm as percent fold increase over the blank (control peptide, concentration not given) [%]
– | – | – | P1: Penetratin delivery peptide, 16 aa RQIKIWFQNRRMKWKK (SEQ ID 4), control [reference compound] | 5.08
5.15 | 8.54 | 12.89 | P1-WD: fusion Trojan peptide SEQ ID 3: Penetratin, glycine, PTPRG wedge domain aa 831-856; RQIKIWFQNRRMKWKKGKQFVKHIGELYSNNQHGFSEDFEEVQ (listed as Homo sapiens) | –
